In publication PMC7955127, “Preclinical small molecule WEHI-7326 overcomes drug resistance and elicits response in patient-derived xenograft models of human treatment-refractory tumors” (Cell Death & Disease, 2021):

Test: Acute toxicity study, single intravenous dose (non-GLP)
Assay type: in vivo, Sprague-Dawley rats
Conditions: female rats; for Lung - focal red areas medial right lobe (2 mm diameter) (incidence at necropsy) / Lung - haemorrhagic area right caudal lobe (1mm diameter) (incidence at necropsy) / Multifocal red petechiae on all lung lobes (incidence at necropsy) / Pale yellow liver (minimal) (incidence at necropsy) / ALP / ALT / APTT / AST / Albumin / Albumin/Globulin / Bilirubin (Total) / Calcium / Chloride / Cholesterol / Creatinine / Globulin / Glucose / HCT / HGB / MCH / MCHC / MCV / PLT / PT / Phosphate / Potassium / Protein (Total) / RBC / Retc. / Sodium / Triglycerides / Urea / WBC: day 15; for ALP / ALT / APTT / AST / Albumin / Albumin/Globulin / Bilirubin (Total) / Calcium / Chloride / Cholesterol / Creatinine / Globulin / Glucose / HCT / HGB / MCH / MCHC / MCV / PLT / PT / Phosphate / Potassium / Protein (Total) / RBC / Retc. / Sodium / Triglycerides / Urea / WBC: mean ± SD
Procedure: This acute toxicity study included a satellite group for toxicokinetic assessment. The toxicity study was comprised of 12 male and 12 female rats, which were allocated into four groups of three males and three females. The toxicity of the test substance, WEHI-7326 dihydrochloride (referred to as WEHI-7326 from here), was tested at three dose concentrations of 5 mg/kg, 15 mg/kg and 30 mg/kg administered as a single dose via intravenous tail vein injection. The vehicle control, D-(+)-Glucose, was formulated at 5% w/v and administered per the above regime. On Study Day 15, all animals were terminated with blood collected for biochemistry, haematology and coagulation analysis before undergoing gross necropsy by a US board certified veterinary pathologist. The toxicokinetic satellite group comprised of 30 male rats which were allocated into four groups of three males in the vehicle control group and nine males in each of the three treatment groups. All treatment group animals were then allocated into three subgroups (A, B and C) and bled pre-dose, then 2min, 10min, 0.5h, 2h, 6h, 12h and 24h post-dose. All vehicle control group animals weren’t allocated to a specific subgroup but were bled at 10min and 12h post-dose. All TK animals were then terminated after the final blood collection. Dosing was suspended on Study Day 1 for both the Toxicity and Toxicokinetic Study animals following adverse reactions which lead to the early termination of two animals (one male treated with mid-dose WEHI-7326 from the Toxicity Study and one male treated with high-dose WEHI-7326 from the Toxicokinetic Study) approximately 5-10 minutes post-treatment. After consultation with the Sponsor, the following changes were made to the Study Design:
At the revised high dose of 20mg/kg, all male rats had to be terminated prematurely also due to reaching their body weight loss endpoint of >10% loss. […] Significant findings in clinical pathology outcomes were considered incidental and unrelated to test article treatment. The majority of macroscopic findings at necropsy were also considered to be incidental, however the findings of white streaks through the testes of male animals treated with WEHI-7326 may be related to treatment. Body weights were measured once prior to dose administration, then daily for the duration of the study and at termination. Clinical observations were performed on a daily basis.
The study followed test guideline OECD No. 420 (2001) “Acute Oral Toxicity - Fixed Dose Procedure” with the exception that the route of administration was intravenous (i.v.).

## COc1ccc(CNc2nc(NCc3ccc(CN)cc3)nc(NN3CC(=O)NC3=O)n2)cc1 [WEHI-7326]
5 mg/kg single i.v.
  Body weight loss >10% (termination required) (incidence): 0/3
  Mild fur loss around both eyes from Study Day 10 to 15 (incidence): 0/3
  Mild impairment of gait and lack of response to stimuli up to 10 minutes post-dose (incidence): 0/3
  No remarkable observations (incidence): 3/3
  Lung - focal red areas medial right lobe (2 mm diameter) (incidence at necropsy): 0/3
  Lung - haemorrhagic area right caudal lobe (1mm diameter) (incidence at necropsy): 0/3
  Multifocal red petechiae on all lung lobes (incidence at necropsy): 1/3
  Pale yellow liver (minimal) (incidence at necropsy): 1/3
  ALP: 286 ± 65 U/L
  ALT: 54 ± 11 U/L
  APTT: 17.2 ± 1.9 s
  AST: 93 ± 13 U/L
  Albumin: 37.3 ± 3.1 g/L
  Albumin/Globulin: 1.6 ± 0.4 Ratio
  Bilirubin (Total): 0.8 ± 0.1 µM
  Calcium: 2.59 ± 0.07 mM
  Chloride: 102.4 ± 0.5 mM
  Cholesterol: 1.98 ± 0.21 mM
  Creatinine: 30 ± 3 µM
  Globulin: 23.7 ± 3.4 g/L
  Glucose: 7.57 ± 0.07 mM
  HCT: 0.45 ± 0.01 L/L
  HGB: 137.3 ± 4.9 g/L
  MCH: 18.87 ± 0.45 pg
  MCHC: 303.0 ± 4.4 g/L
  MCV: 62.3 ± 0.9 fL
  PLT: 1080.0 ± 206.7 10^9/L
  PT: 21.9 ± 1.0 s
  Phosphate: 1.75 ± 0.14 mM
  Potassium: 5.30 ± 0.14 mM
  Protein (Total): 61.0 ± 0.4 g/L
  RBC: 7.27 ± 0.14 10^12/L
  Retc.: 3.76 ± 0.62%
  Sodium: 138 ± 1 mM
  Triglycerides: 0.86 ± 0.29 mM
  Urea: 6.56 ± 1.18 mM
  WBC: 11.28 ± 4.18 10^9/L
15 mg/kg single i.v.
  Body weight loss >10% (termination required) (incidence): 2/3
  Mild fur loss around both eyes from Study Day 10 to 15 (incidence): 0/3
  Mild impairment of gait and lack of response to stimuli up to 10 minutes post-dose (incidence): 0/3
  No remarkable observations (incidence): 1/3
  Lung - focal red areas medial right lobe (2 mm diameter) (incidence at necropsy): 0/1
  Lung - haemorrhagic area right caudal lobe (1mm diameter) (incidence at necropsy): 0/1
  Multifocal red petechiae on all lung lobes (incidence at necropsy): 0/1
  Pale yellow liver (minimal) (incidence at necropsy): 0/1
  ALP: 218 ± 0 U/L
  ALT: 55 ± 0 U/L
  APTT: 18.6 ± 0.0 s
  AST: 73 ± 0 U/L
  Albumin: 37.7 ± 0 g/L
  Albumin/Globulin: 1.3 ± 0 Ratio
  Bilirubin (Total): 1.0 ± 0 µM
  Calcium: 2.48 ± 0 mM
  Chloride: 102.5 ± 0 mM
  Cholesterol: 1.59 ± 0 mM
  Creatinine: 27 ± 0 µM
  Globulin: 28.8 ± 0 g/L
  Glucose: 7.31 ± 0 mM
  HCT: 0.45 ± 0.00 L/L
  HGB: 136.0 ± 0.0 g/L
  MCH: 18.70 ± 0.00 pg
  MCHC: 306.0 ± 0.0 g/L
  MCV: 60.90 ± 0.0 fL
  PLT: 970.0 ± 0.0 10^9/L
  PT: 19.9 ± 0.0 s
  Phosphate: 1.53 ± 0 mM
  Potassium: 4.53 ± 0 mM
  Protein (Total): 66.5 ± 0 g/L
  RBC: 7.31 ± 0.00 10^12/L
  Retc.: 4.52 ± 0.00%
  Sodium: 140 ± 0 mM
  Triglycerides: 0.76 ± 0 mM
  Urea: 6.91 ± 0 mM
  WBC: 10.28 ± 0.00 10^9/L
20 mg/kg single i.v.
  Body weight loss >10% (termination required) (incidence): 0/3
  Mild fur loss around both eyes from Study Day 10 to 15 (incidence): 1/3
  Mild impairment of gait and lack of response to stimuli up to 10 minutes post-dose (incidence): 1/3
  No remarkable observations (incidence): 2/3
  Lung - focal red areas medial right lobe (2 mm diameter) (incidence at necropsy): 1/3
  Lung - haemorrhagic area right caudal lobe (1mm diameter) (incidence at necropsy): 1/3
  Multifocal red petechiae on all lung lobes (incidence at necropsy): 0/3
  Pale yellow liver (minimal) (incidence at necropsy): 0/3
  ALP: 171 ± 38 U/L
  ALT: 70 ± 9 U/L
  APTT: 17.3 ± 1.0 s
  AST: 93 ± 14 U/L
  Albumin: 36.5 ± 1.1 g/L
  Albumin/Globulin: 1.3 ± 0.1 Ratio
  Bilirubin (Total): 1.2 ± 0.3 µM
  Calcium: 2.71 ± 0.12 mM
  Chloride: 100.5 ± 0.7 mM
  Cholesterol: 2.16 ± 0.31 mM
  Creatinine: 38 ± 5 µM
  Globulin: 27.9 ± 1.2 g/L
  Glucose: 7.29 ± 0.68 mM
  HCT: 0.46 ± 0.01 L/L
  HGB: 134.3 ± 3.2 g/L
  MCH: 18.53 ± 0.84 pg
  MCHC: 290.7 ± 1.5 g/L
  MCV: 63.7 ± 2.5 fL
  PLT: 957.0 ± 63.5 10^9/L
